Experimental data reported in US8821862B2, “Soluble β-N-acetylglucosaminidase based antibiofilm compositions and uses thereof” (Kane Biotech Inc., priority 2002, dated 2014).

How the values were obtained:
[1] = tested on: biofilm-embedded S. epidermidis; assay: In vitro biofilm killing assay after DispersinB pre-treatment; format: cell-based, Staphylococcus epidermidis; details: 37° C.
Description: An in vitro biofilm assay was performed to determine the effect of DispersinB™ pre-treatment on the susceptibility of S. epidermidis to SDS. S. epidermidis biofilm grown in tubes were pretreated with PBS or DispersinB™ (20 μg/ml) for 30 min, and then treated with SDS (0.2 mg/ml) for 5 min at 37° C. […] However, SDS caused a 1.5 log unit decrease in the number of CFUs in tubes pretreated with […] biofilm embedded cells more susceptible to SDS.
An in vitro biofilm assay was performed to determine the effect of DispersinB™ pre-treatment on the susceptibility of biofilm-embedded S. epidermidis to CHX. S. epidermidis biofilm grown in tubes were pretreated with PBS or DispersinB™ (20 μg/ml) for 30 min, and then treated with CHX (0.2 μg/ml) for 5 min at 37° C. […] However, CHX caused a 1.6 log decrease of CFU in tubes pretreated with DispersinB™. DispersinB™ pretreatment made biofilm-embedded cells more susceptible to CHX.
An in vitro biofilm assay was performed to determine the effect of DispersinB™ pre-treatment on the susceptibility of S. epidermidis to BKC. S. epidermidis biofilm grown in tubes were pretreated with PBS or DispersinB™ (20 μg/ml) for 30 min, and then treated with BKC (0.4 μg/ml) for 60 min at 37° C. […] However, BKC caused a 2.2 log decrease in CFU in tubes pretreated with DispersinB™. DispersinB™ pre-treatment made biofilm-embedded cells more susceptible to BKC.
An in vitro biofilm assay was performed to determine the effect of DispersinB™ pre-treatment on susceptibility of S. epidermidis to silver nanopowder (SNP). S. epidermidis biofilm grown in tubes were pretreated with PBS or DispersinB™ (20 μg/ml) for 30 min, and then treated with SNP (0.03125 μg/ml) for 60 min at 37° C. […] However, SNP caused a 1.5 log decrease in CFU in tubes pretreated with DispersinB™. DispersinB™ pre-treatment made biofilm embedded cells more susceptible to SNP treatment.

[2] = tested on: biofilm embedded S. aureus; assay: 12-well microplate biofilm assay with CFU counting; format: cell-based, Staphylococcus aureus; details: EGCG 100 ng/ml alone versus DispersinB alone
Description: An in vitro microplate assays were performed to determine the effects of a DispersinB™ and EGCG combination on the growth of biofilm embedded S. epidermidis and S. aureus. Overnight cultures of each bacterial strain grown in Tryptic Soy Broth (TSB) were used as inoculum. Biofilm was developed in TSB on a 12-well microplate in the absence and presence of each test compound (50 ng DispersinB™ or 100 ng/ml ECCG) separately and together (DispersinB™+EGCG). The plates were incubated at 37° C. for 24 hours. Medium containing planktonic cells in each well was removed gently and rinsed with sterile water. A known volume of water was added to each well and sonicated for 30 seconds. The contents of each well was transferred into a sterile tube, vortexed for a minute, followed by 10-fold serial dilution, and plated on agar plates using a spreader. After incubating the plates at 37° C. for 24 hours, colony forming units (CFU) were counted.

[3] = tested on: biofilm embedded S. epidermidis; assay: 12-well microplate biofilm assay with CFU counting; format: cell-based, Staphylococcus epidermidis
Description: In vitro microplate assays were performed to determine the effect of DispersinB and PyrM combination on the growth of biofilm-embedded S. epidermidis. Overnight growth of S. epidermidis in tryptic soy broth (TSB) was used as inoculum. Biofilm was developed in 12-well microplate in the absence and presence of each test compound (1 μg/ml DispersinB or 8 μg/ml PyrM) separately and together (DispersinB+PyrM). The plates were incubated at 37° C. for 24 h. Medium containing planktonic cells in each well was removed gently and rinsed with sterile water. A known volume of water was added to each well and sonicated for seconds. The contents of each well was transferred into a sterile tube, vortexed for a minute, followed by 10-fold serial dilution, and plated on agar plates using a spreader. After incubating the plates at 37° C. for 24 h, colony-forming units (CFU) were counted.

[4] = tested on: A. actinomycetemcomitans planktonic cells; details: SDS; Drake et al. 1992, Wade & Addy 1992; cited from earlier work
[5] = tested on: A. actinomycetemcomitans CU1000 biofilms; assay: Biofilm killing assay; format: cell-based; details: for decrease in the number of CFU: then 0.01% SDS 5 min
Description: Biofilm Killing Assay. […] Tubes were vortexed for 10 s, and 20 μL aliquots of the detached biofilms were transferred to the wells of a flat-bottomed 96-well microtiter plate containing 180 μL of fresh broth. Five serial dilutions (20 μL into 180 μL) were performed directly into adjacent wells. Plates were incubated for 48 h and then rinsed and stained with crystal violet as described above. Wells containing 30-300 biofilm colonies were photographed under a dissecting microscope and counted. In some assays, biofilms were pre-treated with 1 mL of DispersinB™ (20 μg/mL in PBS) for 5 min prior to the SDS treatment. In these assays, a 100 μL quantity of SDS in PBS (at 10 times the test concentration) was added directly to the DispersinB™-treated cell suspension and mixed. After 5 min, tubes were vortexed briefly, and 20-μL aliquots of culture were enumerated as described above. Killing assays were performed in duplicate tubes on at least 5 separate occasions, with similar results.

[6] = tested on: A. actinomycetemcomitans strain HW1018 (PGA mutant) biofilms; assay: Biofilm detachment assay (crystal violet); format: cell-based; details: 0.1% SDS in PBS, 5 min; tubes and microplate wells
Text: (§1) Bacterial strains, media, and growth conditions. A. actinomycetemcomitans strain CU1000 (serotype f) was isolated from a person with localized aggressive periodontitis (Fine et al., Microbiol. 1999, 145: 1335-1347). […] An isogenic PGA mutant strain HW1018 (CU1000 pgaC::IS903φKan) was isolated by randomly mutagenizing CU1000 with transposon IS903φKan and selecting mutants that produced white colonies on Congo red agar, as previously described (Kaplan et al., 2003; Kaplan et al., J. Bacteriol. 2004, 186: 8213-8220). Like other pgaC mutant strains, HW1018 was completely deficient in PGA production, but still formed tenacious biofilms on plastic surfaces (Kaplan et al., 2004). Bacteria were grown in trypticase soy broth supplemented with […] and 8 g/L glucose. Solid medium was supplemented with 15 g/L agar. All cultures were incubated statically at 37° C. in 10% CO2.
(§2) Biofilm Cultures. Biofilms were grown in 17 mm×100 mm culture tubes (untreated polystyrene; Falcon #352051) or 96-well microtiter plates (tissueculture-treated polystyrene, flat bottoms; Falcon #353072). Culture vessels were inoculated with a 1:10 dilution of inoculum in fresh broth (1 mL for tubes or 200 μL for microplates) and incubated for 24 h.
(§3) Crystal Violet Assay. Biofilm biomass was visualized and quantitated by means of a crystal violet binding assay as previously described (Kaplan et al., Antimicrob. Agents Chemother. 2004, 48: 2633-2636). Briefly, biofilms were rinsed with water to remove loosely attached cells, stained for 1 min with Gram's crystal violet (200 μL for microplates and 1 mL for tubes), rinsed, dried, and photographed. For quantitation of biofilms grown in microplates, biofilms were de-stained with 200 μL of 33% acetic acid for 5 min, and the absorbance of the crystal violet solution was measured directly in the plate by means of a BioRad Benchmark microtiter plate-reader set at 590 nm. Crystal violet binds to bacterial biofilms, but not to polystyrene (O'Toole & Kolter, Mol. Microbiol. 1998, 28: 449-461).
(§4) Biofilm Detachment Assay. Biofilms were rinsed with water and treated with 200 μL (for microplates) or 1 mL (for tubes) of DispersinB™ (20 μg/mL in PBS) or SDS (0.001-1% in PBS). After a five- or 30-minute incubation at 37° C., biofilms were rinsed with water and stained with crystal violet as described above. In some assays, biofilms were first treated with DispersinB™ for 5 or 30 min, rinsed, and then treated with SDS. All detachment assays were performed in duplicate wells or tubes. All assays were performed on at least 3 separate occasions, with similar results.

[7] = tested on: A. actinomycetemcomitans strain CU1000 (wild-type) biofilms; assay: Biofilm detachment assay (crystal violet); format: cell-based
Text: as §1, §2, §3, §4

[8] = tested on: biofilm-embedded S. epidermidis; assay: In vitro biofilm-dispersal assay in microcentrifuge tubes (sensitivity of biofilm-embedded cells, CFU plating); format: cell-based, Staphylococcus epidermidis; details: 3 h, 37° C.
[9] = tested on: E. coli csrA luxCDABE kan^r biofilm; assay: Bioluminescent E. coli biofilm on filter disc, luminescence; format: cell-based; details: Table 4, repeated experiment
Text: E. coli TRMG1655 [csrA::kan^r] strain was transformed with transposon, mini-TN5 luxCDABE::kan^r for luciferase expression (Kadurugamuwa et al., 2005, Infect. Immun. 73: 3878-3887), and the operon integrated into the chromosome. Integration was confirmed by amplification of the genomic DNA upstream of the transposon by inverse PCR using Ssp1-digested genomic DNA. Primers UTCF1 (5′-[…]-3′; SEQ ID NO:13) and UTCR (5′-[…]-3′; SEQ ID NO:14) were used to amplify the upstream region using Pfu DNA polymerase (Sigma-Oligosynthesis, St. Louis, Mo.). The lux operon is derived from Photorhabdus luminescence and was obtained from Xenogen Inc. (Alameda, Calif.). These bioluminescent bacteria allow real-time monitoring by noninvasive imaging of biofilms, either in vitro or in vivo.
A cell suspension of 10^6 E. coli csrA luxCDABE kan^r was used to inoculate a filter disc (Millipore Corporation, Billerica, Mass.). The E. coli biofilm was maintained in minimal media (M9) supplemented with 50 μg/ml kanamycin and 100 μg/ml ampicillin. The media were changed every day by transferring the disc to new plate. After 3 days, chemoluminescence activity of the established biofilm was measured using a Typhoon™ imaging scanner (General Electric Healthcare Life Sciences) and ImageQuant TL software (Amersham Biosciences, Sunnyvale, Calif.). The measure luminescence directly correlates with the metabolic activity of the biofilm.
Luminescence was measured at day 0 and was used as the control. Following the measurement of luminescence at day 0, each disc was treated with one of the following—media alone (control) and media containing:
Luminescence was measured every 24 hours followed by replacing the media. Thus, every 24 h following the measurement of the luminescence, 10 μl each of the different solutions was applied to the plate and the biofilm disc was placed on top of the drop everyday. The quantitative analysis of the biofilm luminescence from each day was used to compare the biofilm activity after treatment with the different treatments.
The experiments were repeated using the same E. coli strain csrA luxCDABE kan^r and protocols. Biofilm discs were pulsed with media alone (control) and media containing: […]

[10] = BisEDT 50 μg/ml, DispersinB 50 μg/ml, phage cocktail 10^8

With `[H]/N=C(\N/C(=N/[H])NCCCCCCNC(=N)NC(=N)Nc1ccc(Cl)cc1)Nc1ccc(Cl)cc1` [CHX, chlorhexidine] the “killing of S. epidermidis biofilm” value ([1]; CHX alone, 0.2 μg/ml, 5 min, PBS pretreatment) was “did not significantly kill” and the “decrease of CFU” value ([1]; tubes pretreated with DispersinB 20 μg/ml 30 min, then CHX 0.2 μg/ml 5 min) was 1.6 log.
In the case of `O=C(O[C@@H]1Cc2c(O)cc(O)cc2O[C@@H]1c1cc(O)c(O)c(O)c1)c1cc(O)c(O)c(O)c1` [EGCG, Epigallocatechin gallate], the “inhibiting the growth of biofilm embedded S. aureus, compound alone” value [2] is reported as “more effective than DispersinB™” and the “inhibiting the growth of biofilm embedded S. epidermidis, compound alone” value ([3]; EGCG 100 ng/ml alone versus DispersinB alone) is reported as “more effective than DispersinB™”.
In the case of `O=C1C=CC(=O)N1c1ccc2ccc3cccc4ccc1c2c34` [PyrM, N-(1-pyrenyl)maleimide], the “inhibiting the growth of biofilm-embedded S. epidermidis, compound alone” value ([3]; 8 μg/ml PyrM alone versus 1 μg/ml DispersinB alone) is reported as “more effective than DispersinB”.
For `CCCCCCCCCCCCOS(=O)(=O)[O-].[Na+]` [SDS, sodium dodecyl sulfate], the “MIC against planktonic cells” value [4] is listed as 0.01%, the “killing of biofilm-embedded S. epidermidis” value ([1]; SDS alone, 0.2 mg/ml, 5 min, PBS pretreatment) is listed as “did not significantly kill” and the “decrease in the number of CFUs” value ([1]; tubes pretreated with DispersinB 20 μg/ml 30 min, then SDS 0.2 mg/ml 5 min) is listed as 1.5 log unit. For the same molecule, the “killing of A. actinomycetemcomitans biofilms” value ([5]; SDS alone, 0.01%, 5 min, mock pre-treatment) was “did not significantly kill”, the “decrease in the number of CFU” value ([5]; tubes pre-treated with DispersinB 20 μg/mL for 5 min) was 2 log-unit and the “decrease in the number of CFU” value ([5]; tubes pre-treated with DispersinB 20 μg/mL for 30 min) was 4 log-unit. The “detachment of PGA mutant biofilms” value [6] was “rapid detachment”, the “detachment of wild-type biofilms by SDS” value ([7]; 0.001-1% SDS, 5 min, microplate wells, mock pretreatment) was “resistant to detachment at all concentrations of SDS” and the “attachment of wild-type biofilms” value ([7]; 0.1% SDS in PBS, 5 min, tubes and microplate wells) was “no effect”. For the same molecule, the “SDS concentrations at which biofilms were resistant to detachment” value ([7]; wild-type biofilms pre-treated with DispersinB 20 μg/mL 30 min, then SDS 5 min, microplate wells) was < 0.04% and the “SDS concentration of transition from SDS-resistant to SDS-sensitive” value ([7]; wild-type biofilms pre-treated with DispersinB, same transition expressed in mM) was 1.4 to 2.4 mM.
In the case of `O=C1C=CC(=O)N1c1ccccc1N1C(=O)C=CC1=O` [oPDM, N,N-(1,2 phenylene)dimaleimide], the “inhibiting the growth of biofilm-embedded S. epidermidis, compound alone” value ([3]; 625 μg/ml oPDM alone versus 1 μg/ml DispersinB alone) is reported as “more effective than DispersinB”.
In the case of `OC[C@@H](O)[C@H](O)[C@@H](O)CO` [xylitol], the “inhibitory effect on biofilm-embedded S. epidermidis” value ([8]; 5% xylitol in combination with DispersinB 20 μg/ml) is reported as “slightly enhanced the inhibitory effect”.
For benzalkonium chloride [BKC], the “killing of biofilm-embedded S. epidermidis” value ([1]; BKC alone, 0.4 μg/ml, 60 min, PBS pretreatment) was “did not significantly kill” and the “decrease in CFU” value ([1]; tubes pretreated with DispersinB 20 μg/ml 30 min, then BKC 0.4 μg/ml 60 min) was 2.2 log.
In the case of bismuth ethanedithiol [BisEDT], the “luminescence, Day 1” value [9, 10] is reported as 245.27 RLU, the “luminescence, Day 2” value [9, 10] is reported as 83.51 RLU and the “luminescence, Day 3” value [9, 10] is reported as 8.02 RLU. The “luminescence, Day 4” value [9, 10] was 47.62 RLU and the “luminescence, Day 0” value ([9]; Day 0, before treatment (baseline)) was 1815.26 RLU.
With glucose oxidase the “inhibitory effect on biofilm-embedded S. epidermidis” value ([8]; glucose oxidase 10 U/m in combination with DispersinB 20 μg/ml) was “enhanced the inhibitory effect”.
